Test results published in patent publication US20210353639A1, “MAST1 AND USES FOR DIAGNOSING AND TREATING CANCER” (EMORY UNIVERSITY, priority 2018, published 2021).
Entries after “also recorded” stand apart in the source; their conditions may differ.

Experiments:
MAST1 = molecular target: T1, MAST1 (Homo sapiens, UniProt Q9Y2H9); test: MAST1 in vitro kinase assay (purified GST-MAST1, ADP-Glo); assay type: biochemical; details: 10 μM drugs incubated with purified GST-MAST1
T1 construct: GST; made in house; host or cells: 293T
Experimental: GST-MAST1 variants were enriched from 293T and kinase activity was assessed by ADP-Glo Kinase assay using myelin basic protein (MBP) as a substrate.
10 μM drugs were incubated with purified GST-MAST1 and applied to the in vitro kinase assay.
FIG. 7G show data on the effect of lestaurtinib on MAST1 activity at a range of ATP concentrations.

cRaf-MEK1 = molecular target: T2, cRaf-MEK1 (Homo sapiens, UniProt P04049+Q02750); test: cRaf-MEK1 dissociation in cancer cells (MEK1 immunoprecipitation); assay type: cell-based
T2 construct: endogenous in cells; host or cells: KB-3-1 and other cancer cell lines
Experimental: KB-3-1 cells were treated with different compounds as indicated, followed by MEK1 immunoprecipitation and immunoblotting.

MEK1-cRaf complex = molecular target: T3, MEK1-cRaf complex (Homo sapiens, UniProt P04049+Q02750); test: In vitro MEK1-cRaf dissociation, purified complex from KB-3-1 cells; assay type: biochemical
T3 construct: endogenous in cells; host or cells: KB-3-1
From the text: Samples were collected at different time points and subjected to immunoblotting. Density analysis of relative amount of cRaf bound to MEK1 from three biological replicates are shown.

[1] = Cisplatin sensitivity / cell viability with MAST1 inhibitors in KB-3-1 cells; assay type: cell-based; details: human, read-out: attenuation of cell viability when treated alone
KB-3-1 cells = test: Combination cell viability, Combination Index by CompuSyn, KB-3-1; assay type: cell-based, human; details: lestaurtinib in combination with cisplatin
From the text: (§1) Combination Index (CI) value for cell viability was obtained by CompuSyn.

212LN cells = test: Combination cell viability, Combination Index by CompuSyn, 212LN; assay type: cell-based, human; details: lestaurtinib in combination with cisplatin
From the text: as §1

TKO-002 = test: Combination cell viability, SCLC patient-derived tumor TKO-002; assay type: cell-based, human; details: combination of lestaurtinib and cisplatin, platinum-refractory SCLC TKO-002
From the text: CI value for synergistic effect is shown.

[2] = Tolerability of lestaurtinib and cisplatin dosage (body weight, histopathology, hematopoietic properties); assay type: in vivo, mice; details: 20 mg/kg lestaurtinib and 5 mg/kg cisplatin
Lung PDX (Pt-9 tumor) = test: Tumor growth in lung PDX mice (Pt-9 tumor), lestaurtinib or trametinib with cisplatin; assay type: in vivo; details: in combination with cisplatin (5 mg/kg i.p. twice a week); lestaurtinib 20 mg/kg i.p. 5 times a week, trametinib 1 mg/kg oral daily

T1 sequence (Q9Y2H9 whole entry): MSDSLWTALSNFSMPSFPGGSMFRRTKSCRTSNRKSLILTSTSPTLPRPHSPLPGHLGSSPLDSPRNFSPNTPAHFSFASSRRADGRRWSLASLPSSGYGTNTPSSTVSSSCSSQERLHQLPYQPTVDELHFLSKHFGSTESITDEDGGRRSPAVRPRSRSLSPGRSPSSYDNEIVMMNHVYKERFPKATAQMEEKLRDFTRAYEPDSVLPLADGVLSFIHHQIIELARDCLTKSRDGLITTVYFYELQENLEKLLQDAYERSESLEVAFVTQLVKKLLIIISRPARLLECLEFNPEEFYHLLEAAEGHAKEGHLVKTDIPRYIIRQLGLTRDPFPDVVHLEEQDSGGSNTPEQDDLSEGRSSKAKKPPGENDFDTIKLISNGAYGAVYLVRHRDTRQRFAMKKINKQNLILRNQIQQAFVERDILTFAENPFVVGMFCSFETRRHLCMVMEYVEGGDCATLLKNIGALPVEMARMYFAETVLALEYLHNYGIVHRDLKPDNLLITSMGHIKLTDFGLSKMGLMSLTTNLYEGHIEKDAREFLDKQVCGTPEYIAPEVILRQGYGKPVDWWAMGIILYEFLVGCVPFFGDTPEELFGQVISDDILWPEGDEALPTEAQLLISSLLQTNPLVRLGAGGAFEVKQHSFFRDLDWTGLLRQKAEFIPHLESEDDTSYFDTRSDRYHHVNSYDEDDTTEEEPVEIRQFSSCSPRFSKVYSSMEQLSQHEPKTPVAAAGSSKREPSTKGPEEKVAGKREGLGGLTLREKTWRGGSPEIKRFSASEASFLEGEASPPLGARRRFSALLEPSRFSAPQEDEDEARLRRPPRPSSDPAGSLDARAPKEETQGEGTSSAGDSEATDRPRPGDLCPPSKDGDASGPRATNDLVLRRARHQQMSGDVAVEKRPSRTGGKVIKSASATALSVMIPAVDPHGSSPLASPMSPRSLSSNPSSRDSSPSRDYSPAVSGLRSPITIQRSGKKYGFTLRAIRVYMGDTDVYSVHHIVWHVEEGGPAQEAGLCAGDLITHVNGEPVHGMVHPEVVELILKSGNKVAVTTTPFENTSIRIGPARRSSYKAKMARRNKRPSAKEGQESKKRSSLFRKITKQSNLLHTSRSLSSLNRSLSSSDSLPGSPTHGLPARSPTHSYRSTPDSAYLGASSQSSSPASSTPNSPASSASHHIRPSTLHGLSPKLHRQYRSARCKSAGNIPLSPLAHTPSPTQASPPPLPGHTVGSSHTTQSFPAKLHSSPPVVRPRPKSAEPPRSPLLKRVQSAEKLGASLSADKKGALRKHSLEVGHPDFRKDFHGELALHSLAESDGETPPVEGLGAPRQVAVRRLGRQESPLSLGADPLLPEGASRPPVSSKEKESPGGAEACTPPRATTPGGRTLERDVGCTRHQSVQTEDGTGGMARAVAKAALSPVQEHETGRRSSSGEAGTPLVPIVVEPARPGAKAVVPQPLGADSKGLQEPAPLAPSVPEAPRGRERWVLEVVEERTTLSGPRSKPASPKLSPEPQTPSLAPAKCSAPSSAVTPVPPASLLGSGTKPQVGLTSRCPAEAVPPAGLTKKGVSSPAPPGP
T3 sequence (Q02750 whole entry): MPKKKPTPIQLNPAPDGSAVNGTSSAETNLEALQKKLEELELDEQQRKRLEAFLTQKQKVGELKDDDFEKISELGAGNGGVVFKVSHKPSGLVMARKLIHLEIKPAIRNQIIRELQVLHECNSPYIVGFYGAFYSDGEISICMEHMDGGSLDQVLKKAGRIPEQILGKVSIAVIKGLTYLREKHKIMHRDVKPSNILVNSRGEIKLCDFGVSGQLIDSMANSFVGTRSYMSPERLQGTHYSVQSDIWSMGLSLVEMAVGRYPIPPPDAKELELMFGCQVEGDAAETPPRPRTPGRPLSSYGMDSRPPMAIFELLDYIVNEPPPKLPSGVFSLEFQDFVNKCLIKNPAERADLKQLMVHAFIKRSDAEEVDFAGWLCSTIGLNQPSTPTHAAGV
T3 sequence (P04049 whole entry): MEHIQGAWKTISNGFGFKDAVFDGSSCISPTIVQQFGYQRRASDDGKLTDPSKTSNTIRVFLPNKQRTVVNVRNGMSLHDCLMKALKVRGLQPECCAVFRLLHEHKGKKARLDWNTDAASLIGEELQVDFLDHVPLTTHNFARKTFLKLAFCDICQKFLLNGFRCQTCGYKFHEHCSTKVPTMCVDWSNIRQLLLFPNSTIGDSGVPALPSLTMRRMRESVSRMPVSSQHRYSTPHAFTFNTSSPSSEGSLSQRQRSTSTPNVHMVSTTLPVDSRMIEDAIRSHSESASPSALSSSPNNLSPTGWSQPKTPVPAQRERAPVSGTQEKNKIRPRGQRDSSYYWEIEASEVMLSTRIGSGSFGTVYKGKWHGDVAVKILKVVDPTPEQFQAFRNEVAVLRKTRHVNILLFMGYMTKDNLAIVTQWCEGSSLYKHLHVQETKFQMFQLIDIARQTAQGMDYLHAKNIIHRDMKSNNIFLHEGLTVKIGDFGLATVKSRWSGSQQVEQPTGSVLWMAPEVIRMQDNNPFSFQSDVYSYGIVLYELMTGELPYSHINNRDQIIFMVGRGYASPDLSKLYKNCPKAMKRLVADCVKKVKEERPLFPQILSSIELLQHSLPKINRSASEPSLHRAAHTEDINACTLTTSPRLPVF
T2 sequence (Q02750 whole entry): as the sequence (Q02750 whole entry) above
T2 sequence (P04049 whole entry): as the sequence (P04049 whole entry) above

Cc1[nH]c(C=C2C(=O)Nc3ccc(F)cc32)c(C)c1C(=O)NCC(O)CN1CCOCC1 (stereo not drawn) [SU14813, 5-((5-fluoro-2-oxo-1,2-dihydro-3H-indol-3-ylidene)methyl)-N-(2-hydroxy-3-morpholin-4-ylpropyl)-2,4-dimethyl-1H-pyrrole-3-carboxamide]
MAST1 activity in in vitro MAST1 kinase assay (MAST1): inhibited MAST1 activity in vitro

N#CC(=C(/N)Sc1ccccc1N)/C(C#N)=C(\N)Sc1ccccc1N [U0126]
sensitization of cancer cells to cisplatin by MEK1 inhibitor (cancer cells): sensitized cancer cells to cisplatin

COc1cc(Nc2c(C#N)cnc3cc(OCCCN4CCN(C)CC4)c(OC)cc23)c(Cl)cc1Cl [bosutinib, 4-[(2,4-Dichloro-5-methoxyphenyl)amino]-6-methoxy-7-[3-(4-methyl-1-piperazinyl)propoxy]-3-quinolinecarbonitrile]
MAST1 activity in in vitro MAST1 kinase assay (MAST1): inhibited MAST1 activity in vitro

N.N.[Cl][Pt][Cl] [cisplatin]
dissociation of cRaf from MEK1 in diverse types of cancer cells (cRaf-MEK1; 5 μg/ml cisplatin for 24 hours): dissociates cRaf | time to dissociation of cRaf from MEK1 (MEK1-cRaf complex; 5 μg/ml cisplatin, time course): within one hour | dissociation of cRaf from MEK1 in vitro (MEK1-cRaf complex; purified MEK1-cRaf complex, cisplatin 0-5 μg/ml for 2 hours): dissociates cRaf from MEK1 in a dose-dependent manner

CN1CCN(c2ccc3[nH]c(-c4c(N)c5c(F)cccc5[nH]c4=O)nc3c2)CC1 [dovitinib, 4-amino-5-fluoro-3-(5-(4-methylpiperazin-1-yl)-1H-benzimidazol-2-yl)quinolin-2(1H)-one]
MAST1 activity in in vitro MAST1 kinase assay (MAST1): inhibited MAST1 activity in vitro

C[C@]12O[C@H](C[C@]1(O)CO)n1c3ccccc3c3c4c(c5c6ccccc6n2c5c31)CNC4=O [lestaurtinib, 7-hydroxy-7-(hydroxymethyl)-8-methyl-5,6,7,8,13,14-hexahydro-15H-16-oxa-4b,8a,14-triaza-5,8-methanodibenzo[b,h]cycloocta[jkl]cyclopenta[e]-as-indacen-15-one]
cytotoxicity at 48 h, 100 nM [1]: < 20% | combination index (CI) for cell viability (KB-3-1 cells): 0.256 | combination index (CI) for cell viability (212LN cells): 0.257 | CI value for cell viability (TKO-002): 0.57 | changes in body weight, histopathology, or hematopoietic properties [2]: did not induce significant changes

CC(=O)O[C@H]1C(=O)[C@@]2(C)[C@H]([C@H](OC(=O)c3ccccc3)[C@]3(O)C[C@H](OC(=O)[C@H](O)[C@@H](NC(=O)c4ccccc4)c4ccccc4)C(C)=C1C3(C)C)[C@]1(OC(C)=O)CO[C@@H]1C[C@@H]2O [paclitaxel]
dissociation of cRaf-MEK1 induced by DNA damaging agents and cytotoxic drugs (cRaf-MEK1; KB-3-1 cells): not

CN[C@@H]1C[C@H]2O[C@@](C)([C@@H]1OC)n1c3ccccc3c3c4c(c5c6ccccc6n2c5c31)C(=O)NC4 [staurosporine, 6-methoxy-5-methyl-7-methylamino-6,7,8,9,15,16-hexahydro-5H,14H-5,9-epoxy-4b,9a,15-triazadibenzo[b,h]cyclonona[1,2,3,4-jkl]cyclopenta[e]-as-indacen-14-one]
MAST1 activity in in vitro MAST1 kinase assay (MAST1): inhibited MAST1 activity in vitro

CC(=O)Nc1cccc(-n2c(=O)n(C3CC3)c(=O)c3c(Nc4ccc(I)cc4F)n(C)c(=O)c(C)c32)c1 [trametinib, N-[3-[3-cyclopropyl-5-[(2-fluoro-4-iodophenyl)amino]-3,4,6,7-tetrahydro-6,8-dimethyl-2,4,7-trioxopyrido[4,3-d]pyrimidin-1(2H)-yl]phenyl]acetamide]
PDX tumor growth and proliferation (Lung PDX (Pt-9 tumor)): attenuated PDX tumor growth and proliferation; also recorded: sensitizes cancer cells to cisplatin
